Measured values reported in patent US20240101599A1, “PEPTIDE, CELL GROWTH PROMOTER, PROTEIN PRODUCTION PROMOTER, CULTURE MEDIUM, CELL GROWTH METHOD USING PEPTIDE, AND PROTEIN PRODUCTION METHOD USING PEPTIDE” (Maruhachi Muramatsu, Inc., priority 2020, published 2024).
Where two headings read alike, the source gives them in different places. Peptide text beside a SMILES is read from it.

Assays:
CHO DP-12 [1] = conditions: 5 days; for Viable cell count: n=3; for Amount of protein produced: n=3, ELISA
Procedure: A cell suspension prepared such that CHO DP-12 (ATCC, Cat. No. CRL-12445) was at 2×10^4 cells/mL was seeded in a 24-well plate at 1×10^4 cells/well (500 μL) and cultured in an incubator at 37° C. and 5% CO2 for 24 hours. As a culture medium, a DMEM basal medium in which 200 nM of methotrexate and 2 μg/mL of insulin were blended in a DMEM culture medium (Gibco) containing 10% FBS was used.
After removing the culture medium from each well and washing with the DMEM basal medium (500 μL), each peptide solution (500 μL) was dispensed to each well (total 500 μL/well) to perform culture for 5 days.
After replacing each culture medium with an evaluation medium of the following test section, culture was performed in an incubator at 37° C. and 5% CO2 for 5 days.
• DMEM basal medium • AGK (1 mM)+DMEM basal medium • AGK (2 mM)+DMEM basal medium • Medium supplemented with vitamins and nucleic acids (DMEM basal medium+vitamin+nucleic acid) • AGK (1 mM)+medium supplemented with vitamins and nucleic acids • AGK (2 mM)+medium supplemented with vitamins and nucleic acids
After 5 days of culture, the total amount of the culture medium in each well of the 24-well plate was recovered, a centrifugation operation (5,000 rpm, for 5 minutes) was performed, and the supernatant was separately recovered to measure the amount of produced protein by ELISA.
The cells adhered to the wells after recovering the culture medium were detached by trypsin treatment and suspended again in the DMEM basal medium containing 10% FBS to measure the viable cell count and the viability by a trypan blue staining method using a cell counter.

CHO DP-12 [2] = assay: Cell growth test and protein production test when peptide was added to total synthesis medium; assay type: cell-based; conditions: for Viability, Average / Viable cell count, Average / Amount of protein produced, Average: average n=3; for Viability, Average / Viable cell count, Average / Amount of protein produced, Average / Viability, 1 / Viable cell count, 1 / Amount of protein produced, 1 / Viability, 2 / Viable cell count, 2 / Amount of protein produced, 2 / Viability, 3 / Viable cell count, 3 / Amount of protein produced, 3: ASF104 basal medium, 5 days; for Amount of protein produced, Average / Amount of protein produced, 1 / Amount of protein produced, 2 / Amount of protein produced, 3: ELISA; for Viability, 1 / Viable cell count, 1 / Amount of protein produced, 1: replicate 1; for Viability, 2 / Viable cell count, 2 / Amount of protein produced, 2: replicate 2; for Viability, 3 / Viable cell count, 3 / Amount of protein produced, 3: replicate 3
Procedure: A peptide having the sequence of Gly-Glu-Lys (GEK) was synthesized to prepare peptide solutions at the concentrations of 0 mM, 2.6 mM, 5.1 mM, 10 mM, 20.5 mM, and 41 mM, and an amount of 1/10 of the total culture medium volume was added to each well immediately before the cell culture test such that final concentrations were 0 mM, 0.26 mM, 0.51 mM, 1.0 mM, 2.05 mM, and 4.1 mM, respectively. In the present test, CHO DP-12 (ATCC, Cat. No. CRL-12445) acclimated to an ASF104 basal medium in which 200 nM of methotrexate and 2 μg/mL of insulin were blended in an ASF104 culture medium (Ajinomoto Co., Inc.), which is a total synthesis medium for CHO, was used. A cell suspension prepared such that a cell concentration was 4×10^4 cells/mL was seeded in a 24-well plate at 450 μL/well and cultured in an incubator at 37° C. and 5% CO2 for 24 hours. As a culture medium, an ASF104 basal medium in which 200 nM of methotrexate and 2 μg/mL of insulin were blended in an ASF104 culture medium (Ajinomoto Co., Inc.), which is a total synthesis medium for CHO, was used.
After 24 hours, 50 μL of the prepared peptide solution was added to each well to perform culture for 5 days. The cells were recovered after culture to count the viable cell count.
• ASF104 basal medium • GEK (0.26 mM)+ASF104 basal medium • GEK (0.51 mM)+ASF104 basal medium • GEK (1.0 mM)+ASF104 basal medium • GEK (2.05 mM)+ASF104 basal medium • GEK (4.1 mM)+ASF104 basal medium
100 μL of the culture medium supernatant was collected in a 1.5 mL tube to quantitatively determine the amount of protein produced. The supernatant was diluted to measure the amount of protein produced by ELISA.
In order to analyze the cells, the culture medium in each well was recovered in a 1.5 mL tube to be rinsed with 200 μL of PBS, and the rinsed liquid was also recovered in the same 1.5 mL tube. Thereafter, 100 μL of 0.25% trypsin/EDTA was added to perform incubation for 1 minute. 100 μL of a trypsin inhibitor was added to recover in the same 1.5 mL tube. After rinsing with 200 μL of PBS to recover the rinsed liquid in the same 1.5 mL tube, a centrifugation operation was performed. Suspension was performed in 100 μL of PBS to measure the viable cell count and the cell viability by a trypan blue staining method using a cell counter.
The above preparation, culture, and measurement were performed with n=3. Table 28 and FIG. 27 show the viable cell count in each peptide solution, Table 29 and FIG. 28 show the cell viability in each peptide solution, and Table 30 and FIG. 29 show the amount of protein produced.

[3] = 1 mM AGK + medium supplemented with vitamins and nucleic acids
[4] = 2 mM AGK + medium supplemented with vitamins and nucleic acids

With `C[C@H](N)C(=O)NCC(=O)N[C@@H](CCCCN)C(=O)O` [AGK, Ala-Gly-Lys] (H-Ala-Gly-Lys-OH; N-terminus and C-terminus assumed) the Viable cell count (CHO DP-12 [1]; 1 mM AGK + DMEM basal medium) was 11.97 ×10^4cells/well, the “Amount of protein produced” value (CHO DP-12 [1]; 1 mM AGK + DMEM basal medium) was 7.5 mg/L and the Viable cell count (CHO DP-12 [1]; [3]) was 34.65 ×10^4cells/well. For the same compound, the “Amount of protein produced” value (CHO DP-12 [1]; [3]) was 15.74 mg/L, the Viable cell count (CHO DP-12 [1]; 2 mM AGK + DMEM basal medium) was 11.73 ×10^4cells/well and the “Amount of protein produced” value (CHO DP-12 [1]; 2 mM AGK + DMEM basal medium) was 7.4 mg/L. For the same compound, the Viable cell count (CHO DP-12 [1]; [4]) was 47.07 ×10^4cells/well and the “Amount of protein produced” value (CHO DP-12 [1]; [4]) was 14.34 mg/L.

For `NCCCC[C@H](NC(=O)[C@H](CCC(=O)O)NC(=O)CN)C(=O)O` [GEK, Gly-Glu-Lys] (H-Gly-Glu-Lys-OH; N-terminus and C-terminus assumed), the “Viability, Average” value (CHO DP-12 [2]; 0.26 mM GEK) was 97.0%, the “Viable cell count, Average” value (CHO DP-12 [2]; 0.26 mM GEK) was 1.6 ×10^6 cells/well and the “Amount of protein produced, Average” value (CHO DP-12 [2]; 0.26 mM GEK) was 12.5 mg/L. The “Viability, 1” value (CHO DP-12 [2]; 0.26 mM GEK) was 96%, the “Viable cell count, 1” value (CHO DP-12 [2]; 0.26 mM GEK) was 1.6 ×10^6 cells/well and the “Amount of protein produced, 1” value (CHO DP-12 [2]; 0.26 mM GEK) was 12.2 mg/L. For the same compound, the “Viability, 2” value (CHO DP-12 [2]; 0.26 mM GEK) was 99%, the “Viable cell count, 2” value (CHO DP-12 [2]; 0.26 mM GEK) was 1.5 ×10^6 cells/well and the “Amount of protein produced, 2” value (CHO DP-12 [2]; 0.26 mM GEK) was 12.6 mg/L. For the same compound, the “Viability, 3” value (CHO DP-12 [2]; 0.26 mM GEK) was 96%, the “Viable cell count, 3” value (CHO DP-12 [2]; 0.26 mM GEK) was 1.6 ×10^6 cells/well and the “Amount of protein produced, 3” value (CHO DP-12 [2]; 0.26 mM GEK) was 12.7 mg/L. The “Viability, Average” value (CHO DP-12 [2]; 0.51 mM GEK) was 96.7%, the “Viable cell count, Average” value (CHO DP-12 [2]; 0.51 mM GEK) was 1.6 ×10^6 cells/well and the “Amount of protein produced, Average” value (CHO DP-12 [2]; 0.51 mM GEK) was 12.9 mg/L. The “Viability, 1” value (CHO DP-12 [2]; 0.51 mM GEK) was 95%, the “Viable cell count, 1” value (CHO DP-12 [2]; 0.51 mM GEK) was 1.5 ×10^6 cells/well and the “Amount of protein produced, 1” value (CHO DP-12 [2]; 0.51 mM GEK) was 12.8 mg/L. For the same compound, the “Viability, 2” value (CHO DP-12 [2]; 0.51 mM GEK) was 98%, the “Viable cell count, 2” value (CHO DP-12 [2]; 0.51 mM GEK) was 1.7 ×10^6 cells/well and the “Amount of protein produced, 2” value (CHO DP-12 [2]; 0.51 mM GEK) was 13.2 mg/L. For the same compound, the “Viability, 3” value (CHO DP-12 [2]; 0.51 mM GEK) was 97%, the “Viable cell count, 3” value (CHO DP-12 [2]; 0.51 mM GEK) was 1.6 ×10^6 cells/well and the “Amount of protein produced, 3” value (CHO DP-12 [2]; 0.51 mM GEK) was 12.6 mg/L. The “Viability, Average” value (CHO DP-12 [2]; 1.0 mM GEK) was 96.7%, the “Viable cell count, Average” value (CHO DP-12 [2]; 1.0 mM GEK) was 1.5 ×10^6 cells/well and the “Amount of protein produced, Average” value (CHO DP-12 [2]; 1.0 mM GEK) was 13.1 mg/L. The “Viability, 1” value (CHO DP-12 [2]; 1.0 mM GEK) was 97%, the “Viable cell count, 1” value (CHO DP-12 [2]; 1.0 mM GEK) was 1.3 ×10^6 cells/well and the “Amount of protein produced, 1” value (CHO DP-12 [2]; 1.0 mM GEK) was 12.4 mg/L. For the same compound, the “Viability, 2” value (CHO DP-12 [2]; 1.0 mM GEK) was 97%, the “Viable cell count, 2” value (CHO DP-12 [2]; 1.0 mM GEK) was 1.8 ×10^6 cells/well and the “Amount of protein produced, 2” value (CHO DP-12 [2]; 1.0 mM GEK) was 12.8 mg/L. For the same compound, the “Viability, 3” value (CHO DP-12 [2]; 1.0 mM GEK) was 96%, the “Viable cell count, 3” value (CHO DP-12 [2]; 1.0 mM GEK) was 1.4 ×10^6 cells/well and the “Amount of protein produced, 3” value (CHO DP-12 [2]; 1.0 mM GEK) was 14.1 mg/L. The “Viability, Average” value (CHO DP-12 [2]; 2.05 mM GEK) was 96.7%, the “Viable cell count, Average” value (CHO DP-12 [2]; 2.05 mM GEK) was 1.9 ×10^6 cells/well and the “Amount of protein produced, Average” value (CHO DP-12 [2]; 2.05 mM GEK) was 17.0 mg/L. The “Viability, 1” value (CHO DP-12 [2]; 2.05 mM GEK) was 96%, the “Viable cell count, 1” value (CHO DP-12 [2]; 2.05 mM GEK) was 1.9 ×10^6 cells/well and the “Amount of protein produced, 1” value (CHO DP-12 [2]; 2.05 mM GEK) was 17.5 mg/L. The “Viability, 2” value (CHO DP-12 [2]; 2.05 mM GEK) was 96%, the “Viable cell count, 2” value (CHO DP-12 [2]; 2.05 mM GEK) was 2.2 ×10^6 cells/well and the “Amount of protein produced, 2” value (CHO DP-12 [2]; 2.05 mM GEK) was 17.7 mg/L. The “Viability, 3” value (CHO DP-12 [2]; 2.05 mM GEK) was 98%, the “Viable cell count, 3” value (CHO DP-12 [2]; 2.05 mM GEK) was 1.4 ×10^6 cells/well and the “Amount of protein produced, 3” value (CHO DP-12 [2]; 2.05 mM GEK) was 15.6 mg/L. For the same compound, the “Viability, Average” value (CHO DP-12 [2]; 4.1 mM GEK) was 97.0%, the “Viable cell count, Average” value (CHO DP-12 [2]; 4.1 mM GEK) was 1.7 ×10^6 cells/well and the “Amount of protein produced, Average” value (CHO DP-12 [2]; 4.1 mM GEK) was 13.3 mg/L. For the same compound, the “Viability, 1” value (CHO DP-12 [2]; 4.1 mM GEK) was 97%, the “Viable cell count, 1” value (CHO DP-12 [2]; 4.1 mM GEK) was 1.8 ×10^6 cells/well and the “Amount of protein produced, 1” value (CHO DP-12 [2]; 4.1 mM GEK) was 13.9 mg/L. The “Viability, 2” value (CHO DP-12 [2]; 4.1 mM GEK) was 98%, the “Viable cell count, 2” value (CHO DP-12 [2]; 4.1 mM GEK) was 1.8 ×10^6 cells/well and the “Amount of protein produced, 2” value (CHO DP-12 [2]; 4.1 mM GEK) was 13.2 mg/L. For the same compound, the “Viability, 3” value (CHO DP-12 [2]; 4.1 mM GEK) was 96%, the “Viable cell count, 3” value (CHO DP-12 [2]; 4.1 mM GEK) was 1.5 ×10^6 cells/well and the “Amount of protein produced, 3” value (CHO DP-12 [2]; 4.1 mM GEK) was 12.8 mg/L. For the same compound, the “amount of protein produced as compared to the basal medium (total synthesis medium)” value (CHO DP-12 [2]; in words) was “the amount of protein produced also tended to increase”, the “cell viability as compared to the basal medium (total synthesis medium)” value (CHO DP-12 [2]; in words) was “the cell viability was similarly high” and the “viable cell count as compared to the basal medium (total synthesis medium)” value (CHO DP-12 [2]; in words) was “the viable cell count increased”.
